Data reported in ChEMBL document CHEMBL1641371, “Peptide deformylase inhibitors with non-peptide scaffold: synthesis and structure-activity relationships” (Bioorg Med Chem Lett, 2011).
In brackets after ≈: the same amount, converted by molar mass.

Key:
Peptide deformylase = target: T1, Peptide deformylase (Pseudomonas aeruginosa (strain ATCC 15692 / PAO1 / 1C / PRS 101 / LMG12228), UniProt Q9I7A8); experiment: Inhibition of Pseudomonas aeruginosa peptide deformylase after 10 mins by fluorescence assay
T1 sequence (Q9I7A8 whole entry): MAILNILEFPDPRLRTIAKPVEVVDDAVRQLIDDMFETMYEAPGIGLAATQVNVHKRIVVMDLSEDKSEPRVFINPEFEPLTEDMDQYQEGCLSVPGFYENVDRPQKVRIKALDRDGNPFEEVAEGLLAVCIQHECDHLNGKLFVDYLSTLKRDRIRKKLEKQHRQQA

Streptococcus pneumoniae = experiment: Antimicrobial activity against Streptococcus pneumoniae ATCC 6305 after 48 hrs by microtiter plate assay; assay type: functional; settings: ATCC 6305, 48 h
Haemophilus influenzae = experiment: Antimicrobial activity against Haemophilus influenzae ATCC 51907 after 24 hrs by microtiter plate assay; assay type: functional; settings: ATCC 51907, 24 h
Moraxella catarrhalis = experiment: Antimicrobial activity against Moraxella catarrhalis ATCC 43617 after 48 hrs by microtiter plate assay; assay type: functional; settings: ATCC 43617, 48 h
Staphylococcus aureus = experiment: Antimicrobial activity against Staphylococcus aureus ATCC 6538p after 24 hrs by microtiter plate assay; assay type: functional

Row | IC50 (Peptide deformylase) [µM] | MIC (Streptococcus pneumoniae) [mg/L] | MIC (Haemophilus influenzae) [mg/L] | MIC (Moraxella catarrhalis) [mg/L] | MIC (Staphylococcus aureus) [mg/L] | SMILES
1 | 0.169 | 6.3 (≈ 18.4 µM) | 0.4 (≈ 1.17 µM) | 0.4 (≈ 1.17 µM) | 12.5 (≈ 36.5 µM) | CCCC[C@H](CN(O)C=O)C(=O)[C@@H]1CCCN1C(=O)OC(C)(C)C
2 | 0.603 | 6.3 (≈ 17.6 µM) | 3.2 (≈ 8.93 µM) | 0.1 (≈ 0.279 µM) | 100 (≈ 279 µM) | CCCC[C@H](CN(O)C=O)C(=O)[C@H](NC(=O)OC(C)(C)C)C(C)(C)C
3 | 0.183 | 1.6 (≈ 4.65 µM) | 1.6 (≈ 4.65 µM) | 0.1 (≈ 0.29 µM) | 12.5 (≈ 36.3 µM) | CCCC[C@H](CN(O)C=O)C(=O)[C@@H](NC(=O)OC(C)(C)C)C(C)C
4 | 0.33 | 3.2 (≈ 10.1 µM) | 0.8 (≈ 2.53 µM) | 1.6 (≈ 5.06 µM) | 12.5 (≈ 39.5 µM) | CCCC[C@H](CN(O)C=O)C(=O)[C@H](C)NC(=O)OC(C)(C)C
5 | 0.029 | 0.2 (≈ 0.46 µM) | 0.2 (≈ 0.46 µM) | 0.1 (≈ 0.23 µM) | 50 (≈ 115 µM) | COc1ccccc1NC(=O)N[C@@H](C(=O)N(CC(=O)NO)CC1CCCC1)C(C)(C)C
6 | 0.051 | 3.2 (≈ 9.18 µM) | 0.2 (≈ 0.574 µM) | 0.4 (≈ 1.15 µM) | 3.2 (≈ 9.18 µM) | CCCC[C@H](CN(O)C=O)C(=O)[C@@H](NC(=O)c1ccccc1)C(C)C
7 | 0.06 | 0.8 (≈ 2.54 µM) | 0.2 (≈ 0.636 µM) | 1.6 (≈ 5.09 µM) | 3.2 (≈ 10.2 µM) | CCCC[C@H](CN(O)C=O)C(=O)[C@@H](NC(=O)C(C)C)C(C)C
8 | 0.117 | 0.2 (≈ 0.572 µM) | 0.1 (≈ 0.286 µM) | 0.1 (≈ 0.286 µM) | 1.6 (≈ 4.58 µM) | CCCC[C@H](CN(O)C=O)C(=O)[C@@H](NC(=O)c1ccccn1)C(C)C
9 | 0.022 | 0.2 (≈ 0.528 µM) | 0.2 (≈ 0.528 µM) | 0.8 (≈ 2.11 µM) | 0.8 (≈ 2.11 µM) | CCCC[C@H](CN(O)C=O)C(=O)[C@@H](NC(=O)c1cccc(OC)c1)C(C)C
10 | 0.043 | 0.4 (≈ 1.09 µM) | 0.2 (≈ 0.546 µM) | 1.6 (≈ 4.37 µM) | 1.6 (≈ 4.37 µM) | CCCC[C@H](CN(O)C=O)C(=O)[C@@H](NC(=O)c1cccc(F)c1)C(C)C
11 | 0.073 | 0.2 (≈ 0.572 µM) | 0.1 (≈ 0.286 µM) | 0.1 (≈ 0.286 µM) | 0.8 (≈ 2.29 µM) | CCCC[C@H](CN(O)C=O)C(=O)[C@@H](NC(=O)c1cccnc1)C(C)C
12 | 0.052 | 0.4 (≈ 1.14 µM) | 0.1 (≈ 0.286 µM) | 0.1 (≈ 0.286 µM) | 1.6 (≈ 4.58 µM) | CCCC[C@H](CN(O)C=O)C(=O)[C@@H](NC(=O)c1ccncc1)C(C)C
13 | 0.008 | 0.1 (≈ 0.25 µM) | 0.2 (≈ 0.501 µM) | 0.1 (≈ 0.25 µM) | 0.4 (≈ 1 µM) | CCCC[C@H](CN(O)C=O)C(=O)[C@@H](NC(=O)c1ccc2ccccc2n1)C(C)C
14 | 0.005 | 0.4 (≈ 1 µM) | 0.4 (≈ 1 µM) | 0.1 (≈ 0.25 µM) | 6.4 (≈ 16 µM) | CCCC[C@H](CN(O)C=O)C(=O)[C@@H](NC(=O)c1nccc2ccccc12)C(C)C
15 | 0.016 | 0.4 (≈ 1.21 µM) | 0.1 (≈ 0.304 µM) | 0.8 (≈ 2.43 µM) | 1.6 (≈ 4.86 µM) | CCCC[C@H](CN(O)C=O)C(=O)[C@@H](NC(=O)NC(C)C)C(C)C
16 | 0.01 | 1.6 (≈ 4.5 µM) | 0.2 (≈ 0.563 µM) | 0.1 (≈ 0.281 µM) | 1.6 (≈ 4.5 µM) | CCCC[C@H](CN(O)C=O)C(=O)[C@@H](NC(=O)NC1CCCC1)C(C)C
17 | 0.049 | 0.4 (≈ 1.1 µM) | 0.4 (≈ 1.1 µM) | 0.1 (≈ 0.275 µM) | 1.6 (≈ 4.4 µM) | CCCC[C@H](CN(O)C=O)C(=O)[C@@H](NC(=O)Nc1ccccc1)C(C)C
18 | 0.041 | 0.1 (≈ 0.254 µM) | 0.2 (≈ 0.508 µM) | 0.1 (≈ 0.254 µM) | 0.8 (≈ 2.03 µM) | CCCC[C@H](CN(O)C=O)C(=O)[C@@H](NC(=O)Nc1ccccc1OC)C(C)C
19 | 0.041 | 0.2 (≈ 0.524 µM) | 0.1 (≈ 0.262 µM) | 0.1 (≈ 0.262 µM) | 0.4 (≈ 1.05 µM) | CCCC[C@H](CN(O)C=O)C(=O)[C@@H](NC(=O)Nc1ccccc1F)C(C)C
20 | 0.043 | 1.6 (≈ 4.39 µM) | 0.1 (≈ 0.274 µM) | 0.1 (≈ 0.274 µM) | 0.8 (≈ 2.2 µM) | CCCC[C@H](CN(O)C=O)C(=O)[C@@H](NC(=O)Nc1ccccn1)C(C)C
